Experimental data from patent US8853234B2, “Quinolone analogs and methods related thereto” (Senhwa Biosciences, Inc., priority 2007, dated 2014).
Where two headings read alike, the source gives them in different places.

Experiments:
rDNA = experiment: Quantitative PCR (QPCR) assay, rRNA inhibition (rDNA); type: cell-based; design: Selectivity: reference not given here; settings: for Selectivity: not defined in the patent; for IC50: rRNA inhibition from quantitative PCR assay
Excerpt: In a specific assay embodiment, provided herein is a method for identifying a molecule that modulates ribosomal RNA (rRNA) synthesis, which comprises: contacting cells with a test molecule of Formula (I), (II), (III), (IV), (V), (VI), (VI′), (VII), or (VIII), contacting a ribosomal nucleotide sequence with one or more primers that amplify a portion thereof and a labeled probe that hybridizes to the amplification product, and detecting the amount of the amplification product by hybridization of the labeled probe, whereby a test molecule that reduces or increases the amount of amplification product is identified as a molecule that modulates rRNA synthesis. The labeled probe in some embodiments is added after the primers are added and the rRNA is amplified, and in certain embodiments, the labeled probe and the primers are added at the same time. The portion of ribosomal nucleotide sequence amplified sometimes is at the 5′ end of rDNA.
Real-time quantitative PCR (QPCR) method may be used to detect the changes of the target c-myc and the endogenous reference GAPDH gene copies in the same tube. Generally, cells (15,000 cells/well) are seeded on 96 well flat bottom plates (Corning, N.Y.) and incubated under normal growth conditions for overnight. The next day, the culture medium is exchanged for that containing anticancer drugs at various concentrations and incubated for 4 hrs in a humidified atmosphere of 5% CO2 at 37° C. Total RNA (tRNA) is extracted using the RNeasy 96 Kit (QIAGEN, CA). The concentration of the tRNA is determined by the RiboGreen RNA Quantitation Reagent (Molecular Probes, OR).
A reverse-transcription (RT) reaction may be conducted using 50 ng of tRNA from each well in a 25 μl reaction containing 1× TaqMan RT buffer, 2.5 uM random hexamers, 5.5 mM MgCl2, 0.5 mM each deoxynucleoside triphosphate (dNTP), 30 U MultiScribe Reverse Transcriptase, and 10 U RNase inhibitor. RT reactions are incubated for 10 min at 25° C., reverse-transcribed for 30 min at 48° C., inactivated for 5 min at 95° C., and placed at 4° C. All RT reagents may be purchased from Applied Biosystems, CA.
Real-Time QPCR reaction may be performed in a 50 μl reaction containing the 5 μl of cDNA, 1× Universal PCR Master Mix, 1× c-myc Pre-Developed Primers and Probe set, and 0.8×GAPDH Pre-Developed Primers and Probe set. Because of the relative abundance of GAPDH gene in Hela, GAPDH primers and probe concentration may be adjusted to get accurate threshold cycles (CT) for both genes in the same tube. The threshold cycle (CT) indicates the fractional cycle number at which the amount of amplified target reaches a fixed threshold. By doing so, the GAPDH amplification is stopped before it can limit the common reactants available for amplification of the c-myc. The ΔRn value represents the normalized reporter signal minus the baseline signal. ΔRn increases during PCR as amplicon copy number increases until the reaction approaches a plateau.
The c-myc probe is labeled with 6FAM™ dye-MGB and the GAPDH probe is labeled with VIC™ dye-MTB. Preincubation is performed for 2 min at 50° C. to activate AmpErase UNG enzyme and then for 10 min at 95° C. to activate AmpliTaq DNA Polymerase. DNA is amplified for 40 cycles of 15 sec at 95° C. and 1 min at 60° C. Human c-myc and GAPDH cDNA are amplified, detected, and quantitated in real time using the ABI Prism 7000 Sequence Detection system (Applied Biosystems, CA), which is set to detect both 6-FAM and VIC reporter dyes simultaneously.
The data may be analyzed using the ABI PRISM Sequence Detection System and Microsoft Excel. Relative quantitation is done using the standard curve and comparative CT method at the same time, and both methods gave equivalent results. The cycle at which the amplification plot crosses the CT is known to accurately reflect relative mRNA values. (See, Heid, et al., Genome Res. (1996) 6:986-994; Gibson, et al., Genome Res. (1996) 6:995-1001). […]

[1] = Cassette dosing oral pharmacokinetics in ICR mice; type: in vivo; settings: ICR (IcrTac:ICR), mouse; cassette oral dose 25 mg/kg, female ICR mice, plasma, 0-8 h, none in table
Description: A cassette dosing procedure was utilized to determine pharmaceutical properties of compounds disclosed herein. In this procedure, compounds are selected for each cassette (i.e., cocktail) on the basis that mass spectrometric signals for each compound will not interfere with one another upon mass spectrometric analysis (e.g., will not overlap). The concentration of each compound in the dosing cassette often is about 20 mg/mL to achieve an oral dose level of 25 mg/kg in ICR mice. Aspects of the cassette dosing procedure are described hereafter.
Prepare 0.5 mL of 20 mg/mL dosing solution (in PBS or formulation vehicle) of 12 test compounds. Dilute a dosing solution 20 fold by transferring 10 μL of the stock solution into 190 μL acetonitrile containing 0.1% formic acid to achieve a final concentration of 1 mg/mL. Dilute further a 1 mg/mL solution 1,000 fold by transferring 1 μL of the stock solution into 999 μL acetonitrile containing 0.1% formic acid to achieve a final concentration of 1 μg/mL. Use the 1 μg/mL solution for mass spectrometric method development based on direct infusion. Determine parent/daughter mass spectra of each compound using multiple reaction monitoring (MRM). Compare parent/daughter mass spectra of each compound to assure no cross-reaction interference during LC-MS/MS measurements. Based on MRM mass spectra determine the composition of all cassettes.
Mix 250 μL of four prepared dosing solutions and an oral PK internal standard (20 mg/mL each) according to cassette design to achieve a final concentration of 4 mg/mL. Vortex cassettes rigorously and ultra-sonicate to obtain a clear solution or homogeneous suspension. Use the cassette solutions to dose animals by oral route of administration at 25 mg/kg.
All in vivo experiments follow protocols approved by the Animal Use and Care Committee. Female ICR mice (IcrTac:ICR), 8-10 weeks of age are obtained from Taconic (Hudson, N.Y.). Mice are housed on a 12 h/12 h light/dark cycle with ad libitum access to water and food. After a minimum two week acclimation period, the mice are randomized into groups with a minimum group size of four. The animals used for pharmacokinetic studies have a body-weight range of 25-35 g. A 25 mg/kg (4 mg/ml) dose of a cassette described in Example 1 is orally administered to mice that have been fasted overnight.
After compound administration, serial blood samples are collected via retro-orbital puncture with a capillary tube at various time points (15, 30 minutes and 1, 2, 4, 6 and 8 hours). The samples are transferred to a heparinized 0.5 mL microcentrifuge tube and placed on ice. Plasma is separated by centrifugation and samples are stored at −80° C. until assay.
Dilute a cassette dosing solution (4 mg/mL) four fold by transferring 25 μL of the stock solution into 75 μL of 50% acetonitrile containing 0.1% formic acid to achieve the concentration of 1 mg/mL. Dilute this stock solution further by serial dilutions to make 0.01, 0.1, 1 and 5 μg/mL working standard solutions.
Prepare 500 mL of 0.5 μg/mL solution of bioanalytical internal standard using 100% acetonitrile with 0.1% formic acid. Store the quenching solution in a tightly sealed bottle at 4° C.
Transfer 15 μL of blank mouse plasma to a 96 well plate and precipitate plasma proteins by pipetting of 120 μL of quenching solution to all plasma aliquots. Cover the plate with a matching plate mat and mix well for 30-60 seconds using a vertical multi-tube shaker.
Add 15 μL of the working standard solution of corresponding cassette to quenched plasma and vortex the plate for an additional 30-60 seconds. Then, centrifuge the plate at 4,000 rpm for 10 minutes at 4° C. Without disturbing the plasma protein pellet, transfer 120 μL of the supernatant to a new 96 well plate and dry the sample under nitrogen using a TurboVap® plate evaporator (Caliper Life Sciences; Hopkinton, Mass.). Reconstitute dried residues with 120 μL 20% acetonitrile containing 0.1% formic acid. […]

[2] = test system: a variety of cell types that are representative of different cancers; experiment: Alamar Blue cell viability assay, variety of cell types representative of different cancers (Tables 12-14); type: cell-based; settings: Homo sapiens
Description: A representative cell-proliferation assay protocol using Alamar Blue dye (stored at 4° C., use 20 ul per well) is described hereafter.
96-Well Plate Setup and Compound Treatment
a. Split and trypsinize cells.
b. Count cells using hemocytometer.
c. Plate 4,000-5,000 cells per well in 100 μl of medium and seed into a 96-well plate according to the following plate layout. Add cell culture medium only to wells B10 to B12. Wells B1 to B9 have cells but no compound added.
d. Add 100 μl of 2× drug dilution to each well in a concentration shown in the plate layout above. At the same time, add 100 μl of media into the control wells (wells B10 to B12). Total volume is 200 μl/well.
e. Incubate four (4) days at 37° C., 5% CO2 in a humidified incubator.
f. Add 20 μl Alamar Blue reagent to each well.
g. Incubate for four (4) hours at 37° C., 5% CO2 in a humidified incubator.
h. Record fluorescence at an excitation wavelength of 544 nm and emission wavelength of 590 nm using a microplate reader.
In the assays, cells are cultured with a test compound for approximately four days, the dye then is added to the cells and fluorescence of […] dye is detected after approximately four hours. Different types of cells can be utilized in the assays (e.g., HCT-116 human colorectal carcinoma cells, PC-3 human prostatic cancer cells and MiaPaca human pancreatic carcinoma cells). Anti-proliferative effects of representative compounds are provided hereafter.
(§1) Inhibitory activity on cell proliferation of Compounds A1, A2 and A3 was determined using an Alamar Blue cell viability assay (e.g., Example 39 herein) using a variety of cell types that are representative of different cancers Inhibition values (IC50) are presented in micromolar concentrations in the following table (Table 12).
as §1, with “representative compounds of the invention” for “Compounds A1, A2 and A3”, “Table 13 and Table 14.” for “the following table (Table 12).”

[3] = HCT-116, HCT-116 cells, Table 13, read-out: AB: HCT-116 (IC50)
[4] = K562, K-562 cells, Table 13, read-out: AB: K-562 (IC50)
[5] = MV4-11, MV-4-11 cells, Table 13, read-out: AB: MV-4-11 (IC50)
[6] = PC-3, PC3 cells, Table 13, read-out: AB: PC3 (IC50)
[7] = K562, K-562 cells, Table 14, read-out: AB: K-562 (IC50)
[8] = MIA PaCa-2, MiaPaCa cells, Table 14, read-out: AB: MiaPaCa (IC50)
[9] = MV4-11, MV-4-11 cells, Table 14, read-out: AB: MV-4-11 (IC50)
[10] = PC-3, PC3 cells, Table 14, read-out: AB: PC3 (IC50)
[11] = THP-1, THP-1 cells, Table 14, read-out: AB: THP-1 (IC50)

SMILES | IC50 [2, 3] [nM] | IC50 [2, 6] [nM] | IC50 [2, 7] [nM] | IC50 [2, 8] [nM] | IC50 [2, 9] [nM] | IC50 [2, 10] [nM] | IC50 [2, 11] [nM] | further results
CN1CCN(NC(=O)c2c(=O)c3cc(F)c(N4CCOCC4)nc3n3c2sc2ccccc23)CC1 |  |  |  |  |  |  |  | Selectivity (rDNA): 89; IC50 (rDNA): 102 nM; AUC(0-t) [1]: 4360 ng·h/mL
O=C(NCc1ccccn1)c1c(=O)c2cc(F)c(N3CCOCC3)nc2n2c1sc1ccccc12 |  |  |  |  |  |  |  | Selectivity (rDNA): 1; IC50 (rDNA): 22600 nM; AUC(0-t) [1]: 90600 ng·h/mL
O=C(NC1CC1)c1c(=O)c2ccc(NCC(O)c3ccccc3)nc2n2c1sc1ccccc12 (stereo not shown) | > 10000 | > 10000 |  |  |  |  |  | IC50 [2, 4]: > 10000 nM; IC50 [2, 5]: > 10000 nM
COCCNC(=O)c1c(=O)c2ccc(NCC(O)c3ccccc3)nc2n2c1sc1ccccc12 (stereo not shown) | 133 | 3740 |  |  |  |  |  | 
CN1CCN(C(=O)c2c(=O)c3ccc(NCC(O)c4ccccc4)nc3n3c2sc2ccccc23)CC1 (stereo not shown) | 2510 | 6670 |  |  |  |  |  | IC50 [2, 4]: 3130 nM; IC50 [2, 5]: 543 nM
CN1CCCCC1CNC(=O)c1c(=O)c2ccc(NCC(O)c3ccccc3)nc2n2c1sc1ccccc12 (stereo not shown) | 267 | 633 |  |  |  |  |  | 
O=C(NCC1CC1)c1c(=O)c2ccc(NCC(O)c3ccccc3)nc2n2c1sc1ccccc12 (stereo not shown) | > 10000 | 6080 |  |  |  |  |  | IC50 [2, 4]: > 10000 nM; IC50 [2, 5]: 5030 nM
CN1CCCN(c2nc3c(cc2F)c(=O)c(C(=O)NCc2ccccn2)c2sc4ccccc4n23)CC1 |  |  | 118 | 941 | 43 | 7770 | 1330 | 
CN1CCCN(c2nc3c(cc2F)c(=O)c(C(=O)NCc2cccnc2)c2sc4ccccc4n23)CC1 |  |  | 32 | 133 | < 30 | 2480 | 356 | 
CN1CCCN(c2nc3c(cc2F)c(=O)c(C(=O)NCc2ccncc2)c2sc4ccccc4n23)CC1 |  |  | 95 | 131 | < 30 | 6590 | 1060 | 
CN1CCCN(c2nc3c(cc2F)c(=O)c(C(=O)N2CCOCC2)c2sc4ccccc4n23)CC1 |  |  | 110 | 352 | < 30 | 1210 | 590 | 
CN1CCCN(c2nc3c(cc2F)c(=O)c(C(=O)NN2CCOCC2)c2sc4ccccc4n23)CC1 |  |  | 267 | 359 | 124 | 1800 | 1320 | 
CN1CCCN(c2nc3c(cc2F)c(=O)c(C(=O)NCCCO)c2sc4ccccc4n23)CC1 |  |  | 51 | < 120 | 32 | 2640 | 571 | 
Cc1cnc(CNC(=O)c2c(=O)c3ccc(N4CCCNCC4)nc3n3c2sc2ccccc23)cn1 |  |  | 101 | 637 | 84 |  |  | 
